This is an account of results in patent US20260109707A1, “HETEROBIFUNCTIONAL COMPOUNDS AND METHODS OF TREATING DISEASE” (Halda Therapeutics OpCo. Inc., priority 2022, published 2026).

Experiment [1] relates to T-Rex 293 cell line SC3 cells having increased expression of androgen receptor protein due to exposure to doxycycline. Description: Cellular growth inhibition assay, T-Rex 293 SC3 cells with doxycycline (CellTiter-Glo, 72 hours). In kind it is cell-based. To be noted: T-Rex 293 SC3 cells with increased androgen receptor expression due to doxycycline (10 ng/mL). In short, it runs like this: (§1)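 Doxycycline (10 ng/mL) was either included or omitted to toggle wild-type androgen receptor expression in SC3 cells, a T-Rex 293 clone, grown in stripped-serum, phenol red-free medium. After 72 hours with compound, viable cells were quantified by CellTiter-Glo 2.0.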

The test system of experiment [2] is T-Rex 293 cell line SC3 cells lacking increased expression of androgen receptor protein. Description: Cellular growth inhibition assay, T-Rex 293 SC3 cells without doxycycline (CellTiter-Glo, 72 hours). The experiment is classed as cell-based. Conditions: T-Rex 293 cell line SC3 cells not exposed to doxycycline (lacking increased androgen receptor expression). The method, boiled down:
as §1
A general note: Cellular ATP, detected with luciferase, serves as a proxy for viable cell number.

Another experiment has as its system T47D cells. Description: Cellular growth inhibition assay for T47D cells (CellTiter-Glo, 72 hours). The experiment is classed as cell-based, human. To be noted: 72 hours treatment. The method, boiled down:
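Growth inhibition as GI50, fitted with four parameters to CellTiter-Glo luminescence after 72 h of compound exposure (0.5% DMSO). Cells were T47D, grown in insulin-supplemented (0.2 units/mL) DMEM with 10% FBS and treated one day post-seeding.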

The next experiment has as its system VCaP cells. Description: Cellular growth inhibition assay for VCaP cells (CellTiter-Glo, 72 hours). In kind it is cell-based, human. The method, boiled down: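 Luminescent viability signal after 72 h of compound exposure gave GI50 values by four-parameter nonlinear regression. Compounds were added in 0.5% DMSO to cells plated 24 h earlier at 5000/well in DMEM containing 10% FBS.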

Read-outs that look alike come from different tables or passages of the source.

As for `Cc1sc2c(c1C)C(c1ccc(O[C@@H]3CC[C@@]4(CCCN(c5ccc(C(=O)N[C@H]6CC[C@H](Oc7ccc(C#N)c(Cl)c7)CC6)nn5)C4)C3)cn1)=N[C@@H](Cc1ncco1)c1nnc(C)n1-2` [I-362], the GI50 – broadly, the concentration at which growth is held to half of that of the control – in experiment [1] (72 h) was less than 500 nM; in experiment [2] (72 h), less than 500 nM; with T47D cells (Homo sapiens, T47D, 72 h), less than 500 nM; in the experiment with VCaP cells (Homo sapiens, VCaP, 72 h) it was less than 500 nM.

On to `Cc1sc2c(c1C)C(c1ccc([C@H]3CC[C@]4(C3)CN(c3ccc(C(=O)N[C@H]5CC[C@H](Oc6ccc(C#N)c(Cl)c6)CC5)nn3)CCO4)cc1)=N[C@@H](Cc1ncco1)c1nnc(C)n1-2` [I-363], for which the concentration for 50% growth inhibition (GI50) was more than 3000 nM in experiment [1] (72 h); more than 3000 nM in experiment [2] (72 h); more than 3000 nM in the experiment on T47D cells (Homo sapiens, T47D, 72 h); more than 3000 nM with VCaP cells (Homo sapiens, VCaP, 72 h).

With `Cc1sc2c(c1C)C(c1ccc([C@H]3CC[C@@]4(C3)CN(c3ccc(C(=O)N[C@H]5CC[C@H](Oc6ccc(C#N)c(Cl)c6)CC5)nn3)CCO4)cc1)=N[C@@H](Cc1ncco1)c1nnc(C)n1-2` [I-364], the GI50 is less than 500 nM in experiment [1] (72 h); more than 3000 nM in experiment [2] (72 h); less than 500 nM in the experiment on T47D cells (Homo sapiens, T47D, 72 h); less than 500 nM with VCaP cells (Homo sapiens, VCaP, 72 h).

Turning to `Cc1sc2c(c1C)C(c1ccc(CC3CCC4(CC3)CCN(c3ccc(C(=O)N[C@H]5CC[C@H](Oc6ccc(C#N)c(Cl)c6)CC5)nn3)CC4)cc1)=N[C@@H](Cc1ncco1)c1nnc(C)n1-2` [I-365], the GI50 in experiment [1] is less than 500 nM; in experiment [2] it was 500 to 1500 nM; with T47D cells it was less than 500 nM; in the experiment on VCaP cells, less than 500 nM.

Turning to `Cc1sc2c(c1C)C(c1ccc(CN3CCC4(CC3)CCN(c3ccc(C(=O)N[C@H]5CC[C@H](Oc6ccc(C#N)c(Cl)c6)CC5)nn3)CC4)cc1)=N[C@@H](Cc1ncco1)c1nnc(C)n1-2` [I-366], the GI50 in experiment [1] (72 h) is less than 500 nM; in experiment [2] (72 h), less than 500 nM; with T47D cells (Homo sapiens, T47D, 72 h), less than 500 nM; in the experiment on VCaP cells (Homo sapiens, VCaP, 72 h) it was less than 500 nM.

As for `Cc1sc2c(c1C)C(c1ccc(N3CCC4(CCCN(c5ccc(C(=O)N[C@H]6CC[C@H](Oc7ccc(C#N)c(Cl)c7)CC6)nn5)C4)CC3)cc1)=N[C@@H](Cc1ncco1)c1nnc(C)n1-2` [I-367], the GI50 in experiment [1] (72 h) was less than 500 nM; in experiment [2] (72 h) it was less than 500 nM; in the experiment with T47D cells (Homo sapiens, T47D, 72 h), less than 500 nM; in the experiment on VCaP cells (Homo sapiens, VCaP, 72 h), less than 500 nM.

For `Cc1sc2c(c1C)C(c1ccc(N3CCC4(CC3)CCN(c3ccc(C(=O)N[C@H]5CC[C@H](Oc6ccc(C#N)c(Cl)c6)CC5)nn3)C4)cc1)=N[C@@H](Cc1ncco1)c1nnc(C)n1-2` [I-368], the GI50 in experiment [1] (72 h) was less than 500 nM; in experiment [2] (72 h) it was less than 500 nM; in the experiment with T47D cells (Homo sapiens, T47D, 72 h) it was less than 500 nM; with VCaP cells (Homo sapiens, VCaP, 72 h), less than 500 nM.

In the case of `Cc1sc2c(c1C)C(c1ccc(-c3ccc(C4CCN(c5ccc(C(=O)NC6CCC(Oc7ccc(C#N)c(Cl)c7)CC6)nn5)CC4)cc3)cc1)=N[C@@H](Cc1ncco1)c1nnc(C)n1-2` (some centres unmarked) [I-369], the 50% growth inhibitory concentration (GI50) in experiment [1] (72 h) was more than 3000 nM; in experiment [2] (72 h), more than 3000 nM; in the experiment on T47D cells (Homo sapiens, T47D, 72 h), more than 3000 nM; in the experiment with VCaP cells (Homo sapiens, VCaP, 72 h) it was less than 500 nM.

With `Cc1sc2c(c1C)C(c1ccc(-c3ccc(C4CCN(c5ccc(C(=O)NC6CCC(Oc7ccc(C#N)c(Cl)c7)CC6)nn5)CC4)cc3)cc1)=N[C@H](Cc1ncco1)c1nnc(C)n1-2` (some centres unmarked) [I-370], the GI50 in experiment [1] (72 h) was less than 500 nM; in experiment [2] (72 h) it was more than 3000 nM; in the experiment with T47D cells (Homo sapiens, T47D, 72 h), 500 to 1500 nM; in the experiment on VCaP cells (Homo sapiens, VCaP, 72 h) it was more than 3000 nM.

For `Cc1sc2c(c1C)C(c1ccc([C@H]3C[C@@H](C4CCN(c5ccc(C(=O)N[C@H]6CC[C@H](Oc7ccc(C#N)c(Cl)c7)CC6)nn5)CC4)C3)cc1)=N[C@@H](Cc1ncco1)c1nnc(C)n1-2` [I-371], the concentration for 50% growth inhibition (GI50) is more than 3000 nM in experiment [1] (72 h); more than 3000 nM in experiment [2] (72 h); more than 3000 nM with T47D cells (Homo sapiens, T47D, 72 h); more than 3000 nM in the experiment with VCaP cells (Homo sapiens, VCaP, 72 h).

As for `Cc1sc2c(c1C)C(c1ccc([C@H]3C[C@@H](C4CCN(c5ccc(C(=O)N[C@H]6CC[C@H](Oc7ccc(C#N)c(Cl)c7)CC6)nn5)CC4)C3)cc1)=N[C@H](Cc1ncco1)c1nnc(C)n1-2` [I-372], the GI50 in experiment [1] (72 h) is less than 500 nM; in experiment [2] (72 h) it was less than 500 nM; in the experiment on T47D cells (Homo sapiens, T47D, 72 h), less than 500 nM; in the experiment with VCaP cells (Homo sapiens, VCaP, 72 h), less than 500 nM.

`Cc1sc2c(c1C)C(c1ccc([C@H]3C[C@H](C4CCN(c5ccc(C(=O)N[C@H]6CC[C@H](Oc7ccc(C#N)c(Cl)c7)CC6)nn5)CC4)C3)cc1)=N[C@@H](Cc1ncco1)c1nnc(C)n1-2` [I-373]: the GI50 in experiment [1] (72 h) is less than 500 nM; in experiment [2] (72 h), more than 3000 nM; with T47D cells (Homo sapiens, T47D, 72 h), less than 500 nM; in the experiment on VCaP cells (Homo sapiens, VCaP, 72 h), less than 500 nM.

Turning to `Cc1sc2c(c1C)C(c1ccc([C@H]3C[C@@H]([C@@H]4CCCN(c5ccc(C(=O)N[C@H]6CC[C@H](Oc7ccc(C#N)c(Cl)c7)CC6)nn5)C4)C3)cc1)=N[C@@H](Cc1ncco1)c1nnc(C)n1-2` [I-374], the GI50 was more than 3000 nM in experiment [1] (72 h); more than 3000 nM in experiment [2] (72 h); more than 3000 nM with T47D cells (Homo sapiens, T47D, 72 h); more than 3000 nM in the experiment on VCaP cells (Homo sapiens, VCaP, 72 h).

`Cc1sc2c(c1C)C(c1ccc([C@H]3C[C@H]([C@H]4CCCN(c5ccc(C(=O)N[C@H]6CC[C@H](Oc7ccc(C#N)c(Cl)c7)CC6)nn5)C4)C3)cc1)=N[C@@H](Cc1ncco1)c1nnc(C)n1-2` [I-375]: the concentration for 50% growth inhibition (GI50) is less than 500 nM in experiment [1] (72 h); more than 3000 nM in experiment [2] (72 h); more than 3000 nM in the experiment with T47D cells (Homo sapiens, T47D, 72 h); less than 500 nM in the experiment on VCaP cells (Homo sapiens, VCaP, 72 h).

For the molecule `Cc1sc2c(c1C)C(c1ccc([C@H]3C[C@@H]([C@H]4CCCN(c5ccc(C(=O)N[C@H]6CC[C@H](Oc7ccc(C#N)c(Cl)c7)CC6)nn5)C4)C3)cc1)=N[C@@H](Cc1ncco1)c1nnc(C)n1-2` [I-376], the GI50 was less than 500 nM in experiment [1] (72 h); less than 500 nM in experiment [2] (72 h); less than 500 nM with T47D cells (Homo sapiens, T47D, 72 h); less than 500 nM in the experiment on VCaP cells (Homo sapiens, VCaP, 72 h).

`Cc1sc2c(c1C)C(c1ccc([C@H]3C[C@H]([C@@H]4CCCN(c5ccc(C(=O)N[C@H]6CC[C@H](Oc7ccc(C#N)c(Cl)c7)CC6)nn5)C4)C3)cc1)=N[C@@H](Cc1ncco1)c1nnc(C)n1-2` [I-377]: the concentration for 50% growth inhibition (GI50) was less than 500 nM in experiment [1] (72 h); less than 500 nM in experiment [2] (72 h); less than 500 nM in the experiment with T47D cells (Homo sapiens, T47D, 72 h); less than 500 nM with VCaP cells (Homo sapiens, VCaP, 72 h).

As for `Cc1sc2c(c1C)C(c1ccc(C3CC([C@@H]4CCCN(c5ccc(C(=O)N[C@H]6CC[C@H](Oc7ccc(C#N)c(Cl)c7)CC6)nn5)C4)C3)cc1)=N[C@@H](Cc1ncco1)c1nnc(C)n1-2` (some centres unmarked) [I-378], the concentration for 50% growth inhibition (GI50) in experiment [1] (72 h) is less than 500 nM; in experiment [2] (72 h), more than 3000 nM; in the experiment on T47D cells (Homo sapiens, T47D, 72 h), 500 to 1500 nM; in the experiment on VCaP cells (Homo sapiens, VCaP, 72 h), less than 500 nM.

As to `Cc1sc2c(c1C)C(c1ccc(CCN3[C@@H](C)CN(c4ccc(C(=O)N[C@H]5CC[C@H](Oc6ccc(C#N)c(Cl)c6)CC5)nn4)C[C@@H]3C)cc1)=N[C@@H](Cc1ncco1)c1nnc(C)n1-2` [I-379], the GI50 in experiment [1] (72 h) is less than 500 nM; in experiment [2] (72 h), less than 500 nM; in the experiment on T47D cells (Homo sapiens, T47D, 72 h), less than 500 nM; with VCaP cells (Homo sapiens, VCaP, 72 h) it was less than 500 nM.

Regarding `Cc1sc2c(c1C)C(c1ccc([C@H]3C[C@@H](C4CC5(CCN(c6ccc(C(=O)N[C@H]7CC[C@H](Oc8ccc(C#N)c(Cl)c8)CC7)nn6)CC5)C4)C3)cc1)=N[C@@H](Cc1ncco1)c1nnc(C)n1-2` [I-380], the 50% growth inhibitory concentration (GI50) is more than 3000 nM in experiment [1] (72 h); more than 3000 nM in experiment [2] (72 h); more than 3000 nM with T47D cells (Homo sapiens, T47D, 72 h); more than 3000 nM in the experiment on VCaP cells (Homo sapiens, VCaP, 72 h).

`Cc1sc2c(c1C)C(c1ccc([C@H]3C[C@H](C4CC5(CCN(c6ccc(C(=O)N[C@H]7CC[C@H](Oc8ccc(C#N)c(Cl)c8)CC7)nn6)CC5)C4)C3)cc1)=N[C@@H](Cc1ncco1)c1nnc(C)n1-2` [I-381]: the 50% growth inhibitory concentration (GI50) in experiment [1] (72 h) was more than 3000 nM; in experiment [2] (72 h) it was more than 3000 nM; with T47D cells (Homo sapiens, T47D, 72 h), more than 3000 nM; in the experiment with VCaP cells (Homo sapiens, VCaP, 72 h) it was more than 3000 nM.
